{"source": "patent US20260232619A1", "about": "“TREATMENT OF NEUROLOGICAL DISORDERS WITH ALLICIN AND ANALOGUES THEREOF” (KATHOLIEKE UNIVERSITEIT LEUVEN, priority 2023, published 2026)", "key": {"scn1lab−/− larvae [1]": {"test_system": "scn1lab−/− larvae", "assay": "Locomotor activity assessment in zebrafish scn1lab−/− mutant model of Dravet syndrome", "type": "in vivo, zebrafish (Danio rerio)", "method": "(§1) FIG. 2. […] (A) Anti-seizure treatment schedule: 3 dpf scn1lab−/− larvae were exposed to the MTC of allicin or VHC control. 2 days later, abnormal locomotor behavior and epileptiform brain activity of treated larvae was analyzed using an automated tracking device (Noldus) and local field potential recordings, respectively. (B) The normalized cumulative duration of activity (%) is represented as mean±SEM. According to the treatment schedule depicted in panel A, anti-seizure effect of allicin was examined in scnLab−/− larvae at 5 dpf (n=22), and compared to VHC treated scnLab−/− larvae (n=24). VHC treated scn1Lab+/+ larvae (n=24) were included as control. (C) The average number of epileptiform events per 10-minute recording is represented as mean±SEM. Treatment schedule depicted in panel A was followed. Accordingly, electrophysiological effect of allicin was examined in scnLab−/− larvae at 5 dpf (n=15), and compared to VHC treated scnLab−/− larvae (n=15). VHC treated scn1Lab+/+ larvae (n=8) were included as control (D) Early treatment schedule: 1 dpf scn1lab−/− larvae were dechorionated and exposed to the MTC of allicin or VHC control. 2 days later, swimming medium of the larvae was replenished with identical concentrations of allicin or VHC, respectively. At 5 dpf, abnormal locomotor behavior and epileptiform brain activity of treated larvae was analyzed using an automated tracking device (Noldus) and local field potential recordings, respectively. (continued on page 6)(continued from page 5) (E) The normalized cumulative duration of activity (%) is represented as mean±SEM. […] At 5 dpf, abnormal locomotor behavior and epileptiform brain activity of treated larvae was analyzed using an automated tracking device (Noldus) and local field potential recordings, respectively. […]\n(§2) The mutant larval fish typically develop signs of epilepsy (hyperlocomotor activity, abnormal brain electrical discharges as assessed by Local Field Potential (LFP) measurements) at 4-5 dpf (days post-fertilization). […]"}, "scn1lab−/− larvae [2]": {"test_system": "scn1lab−/− larvae", "assay": "Non-invasive local field potential (LFP) recordings in zebrafish scn1lab−/− mutant model of Dravet syndrome", "type": "in vivo, zebrafish (Danio rerio)", "method": "as §1, §2"}}, "note": "“Also recorded” adds a separate entry of the source."}
{"compound": "C=CCS[S@@+]([O-])CC=C", "note": "(racemic) [allicin, S-(Prop-2-en-1-yl) prop-2-ene-1-sulfinothioate]", "values": [{"measurement": "abnormal locomotor behavior (hyperlocomotor activity) compared to VHC treated controls", "setting": "scn1lab−/− larvae [1]; anti-seizure treatment schedule: allicin at MTC from 3 dpf onwards (after seizure onset), measured at 5 dpf (FIG. 2B)", "result": "did not demonstrate significant decreases; also recorded: rescue effect is not present"}, {"measurement": "abnormal hyperactive behavior compared to VHC controls", "setting": "scn1lab−/− larvae [1]; early treatment schedule: dechorionated at 1 dpf, exposed to allicin at MTC for 4 days, measured at 5 dpf (FIG. 2E)", "result": "highly significant decreases"}, {"measurement": "typical symptoms of epilepsy: hyperlocomotor activity", "setting": "scn1lab−/− larvae [1]; exposed during the 0-3 dpf period to non-toxic concentrations, measured at 5 dpf", "result": "are not present"}, {"measurement": "epileptiform brain activity compared to VHC treated controls", "setting": "scn1lab−/− larvae [2]; anti-seizure treatment schedule: allicin at MTC from 3 dpf onwards (after seizure onset), LFP at 5 dpf (FIG. 2C)", "result": "did not demonstrate significant decreases; also recorded: rescue effect is not present"}, {"measurement": "epileptiform events", "setting": "scn1lab−/− larvae [2]; early treatment schedule: dechorionated at 1 dpf, exposed to allicin at MTC for 4 days, LFP at 5 dpf (FIG. 2F)", "result": "significantly reduced to similar levels as observed in wild-type and heterozygous siblings"}, {"measurement": "typical symptoms of epilepsy: abnormal brain electrical discharges", "setting": "scn1lab−/− larvae [2]; exposed during the 0-3 dpf period to non-toxic concentrations, measured at 5 dpf (data not shown)", "result": "are not present"}]}
